In patent US20140023611A1 (priority 2010, published 2014):

Molecular target: T1, rat NaP2b (SLC34A2) (Rattus norvegicus, UniProt Q9JJ09)
T1 construct: host or cells: HEK293
T1 sequence (Q9JJ09 1-695): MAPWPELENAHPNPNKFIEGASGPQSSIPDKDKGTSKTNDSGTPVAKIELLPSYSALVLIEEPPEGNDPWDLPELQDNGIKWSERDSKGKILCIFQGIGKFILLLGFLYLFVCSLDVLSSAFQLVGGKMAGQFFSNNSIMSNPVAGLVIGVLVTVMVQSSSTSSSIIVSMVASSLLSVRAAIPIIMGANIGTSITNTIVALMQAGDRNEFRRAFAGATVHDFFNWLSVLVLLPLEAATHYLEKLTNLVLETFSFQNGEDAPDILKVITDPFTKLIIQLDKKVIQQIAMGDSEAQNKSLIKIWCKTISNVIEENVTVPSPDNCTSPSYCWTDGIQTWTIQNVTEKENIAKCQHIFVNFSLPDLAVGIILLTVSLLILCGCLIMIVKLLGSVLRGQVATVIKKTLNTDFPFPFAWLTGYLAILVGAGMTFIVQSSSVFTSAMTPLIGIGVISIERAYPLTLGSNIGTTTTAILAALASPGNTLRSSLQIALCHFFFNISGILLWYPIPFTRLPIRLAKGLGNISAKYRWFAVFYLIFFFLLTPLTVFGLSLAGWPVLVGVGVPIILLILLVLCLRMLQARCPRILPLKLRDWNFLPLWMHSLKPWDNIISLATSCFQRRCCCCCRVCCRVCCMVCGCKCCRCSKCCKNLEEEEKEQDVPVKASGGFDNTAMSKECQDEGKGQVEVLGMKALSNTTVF
Assay: Inhibition of NaP2b-mediated Pi (33P) uptake in transfected HEK293 cells, rat NaP2b
Format: cell-based
Conditions: 33P Pi uptake, 0.1 mM phosphate, value given as pIC50 range
Description: HEK293 cells were obtained from the American Type Culture collection and propagated per their instructions. […] The sequence of the human protein was mutated to insert a threonine after residue 37, and to introduce a N39D mutation.
Cells were seeded into 96-well plates at 25,000 cells/well and cultured overnight. Lipofectamine 2000 (Invitrogen) was used to introduce the NaP2b cDNA, and the cells were allowed to approach confluence during a second overnight incubation. […] Each compound was tested at twelve concentrations ranging from 0.1 nM to 30 uM. Assays were run in duplicate.
Cells were lysed by addition of 20 μL 0.1% Tween 80 followed by 100 μL scintillation fluid, and counted using a TopCount (Perkin Elmer).
pIC50 (the negative log of the IC50) values of the test compounds were calculated using GraphPad Prism.

`CN(C)c1ccc(NC(=O)c2cccc(CSCCC(=O)O)c2)c(-c2cc(C(=O)NCc3cccc(C(F)(F)F)c3)ccn2)c1` [Example 120] and `Cc1cc(C(=O)NCc2cccc(C(F)(F)F)c2)cc(-c2cc(N3CCCCC3)ccc2NC(=O)c2cccc(CSCCC(=O)O)c2)n1` [Example 85] fall in the same range of IC50: 1 to 7.94 µM for the first, 1 to 7.94 µM for the second.

First: CN(CCN1CCOCC1)C(=O)c1cccc(C(=O)Nc2ccc(N3CCC(C)(C)CC3)cc2-c2cc(C(=O)NCc3cccc(C(F)(F)F)c3)ccn2)c1 [Example 108]
Second: CCN(CCN1CCOCC1)C(=O)c1cccc(C(=O)Nc2ccc(N3CCCCC3)cc2-c2cc(C(=O)NCc3cccc(C(F)(F)F)c3)ccn2)c1 [Example 4.8, N1-Ethyl-N1-(2-morpholinoethyl)-N3-(4-(piperidin-1-yl)-2-(4-((3-(trifluoromethyl)benzyl)carbamoyl)pyridin-2-yl)phenyl)isophthalamide]
The IC50 of the first is higher: 10 to 31.6 µM for the first, 1 to 7.94 µM for the second. The second is the more potent here.

First: CN(Cc1cccc(C(=O)Nc2ccc(N3CCCCC3)cc2-c2cc(C(=O)NCc3cccc(C(F)(F)F)c3)ccn2)c1)C(=O)CN1CCOCC1 [Example 42, 2-(2-(3-((N-Methyl-2-morpholinoacetamido)methyl)benzamido)-5-(piperidin-1-yl)phenyl)-N-(3-(trifluoromethyl)benzyl)isonicotinamide]
Second: O=C(NCCN1CCOCC1)c1cccc(SCc2cccc(C(=O)Nc3ccc(N4CCCCC4)cc3-c3cc(C(=O)NCc4cccc(C(F)(F)F)c4)ccn3)c2)c1 [Example 10.6]
The IC50 of the first is higher: 10 to 31.6 µM for the first, 1 to 7.94 µM for the second.

`O=C(O)CCSCc1cccc(C(=O)Nc2ccc(N3CCCCC3)cc2-c2cc(C(=O)NCc3ccc(Oc4ccccc4)cc3)ccn2)c1` [Example 1.40] and `CC(C)(C)c1ccc(CNC(=O)c2ccnc(-c3cc(N4CCCCC4)ccc3NC(=O)c3cccc(CSCCC(=O)O)c3)c2)cc1` [Example 1.3, 3-((3-((2-(4-((4-(Tert-butyl)benzyl)carbamoyl)pyridin-2-yl)-4-(piperidin-1-yl)phenyl)carbamoyl)benzyl)thio)propanoic acid] fall in the same range of IC50: 1 to 7.94 µM for the first, 1 to 7.94 µM for the second.

`O=C(O)CCSCc1cccc(C(=O)Nc2ccc(N3CCCCC3)cc2-c2cc(NC(=O)c3cccc(C(F)(F)F)c3)ccn2)c1` [Example 73, 3-((3-((4-(Piperidin-1-yl)-2-(4-(3-(trifluoromethyl)benzamido)pyridin-2-yl)phenyl)carbamoyl)benzyl)thio)propanoic acid] and `Cc1ccc(C(=O)Nc2ccnc(-c3cc(N4CCCCC4)ccc3NC(=O)c3cccc(CSCCC(=O)O)c3)c2)cc1C` [Example 74, 3-((3-((2-(4-(3,4-Dimethylbenzamido)pyridin-2-yl)-4-(piperidin-1-yl)phenyl)carbamoyl)benzyl)thio)propanoic acid] fall in the same range of IC50: 10 to 31.6 µM for the first, 10 to 31.6 µM for the second.

Compared with `CC(=O)N1CCN(Cc2cccc(C(=O)Nc3ccc(N4CCCCC4)cc3-c3cc(C(=O)NCc4cccc(C(F)(F)F)c4)ccn3)n2)CC1` [Example 58, 6-((4-Acetylpiperazin-1-yl)methyl)-N-(4-(piperidin-1-yl)-2-(4-((3-(trifluoromethyl)benzyl)carbamoyl)pyridin-2-yl)phenyl)picolinamide], `CC(=O)NC1CCN(Cc2cccc(C(=O)Nc3ccc(N4CCCCC4)cc3-c3cc(C(=O)NCc4cccc(C(F)(F)F)c4)ccn3)n2)CC1` [Example 57, 6-((4-Acetamidopiperidin-1-yl)methyl)-N-(4-(piperidin-1-yl)-2-(4-((3-(trifluoromethyl)benzyl)carbamoyl)pyridin-2-yl)phenyl)picolinamide] is higher in IC50: 1 to 7.94 µM for the first, 10 to 31.6 µM for the second. The first is the more potent here.

`CN(Cc1nccn1C)C(=O)c1cccc(C(=O)Nc2ccc(N3CCCCC3)cc2-c2cc(C(=O)NCc3cccc(C(F)(F)F)c3)ccn2)c1` [Example 4.25] and `CN(CCn1ccnc1)C(=O)c1cccc(C(=O)Nc2ccc(N3CCCCC3)cc2-c2cc(C(=O)NCc3cccc(C(F)(F)F)c3)ccn2)c1` [Example 4.28] fall in the same range of IC50: 1 to 7.94 µM for the first, 1 to 7.94 µM for the second.

`O=C(O)CCOCCOCCOCCNC(=O)CCOCCOCCOCCOCCSCc1cccc(C(=O)Nc2ccc(N3CCCCC3)cc2-c2cc(C(=O)NCc3cccc(C(F)(F)F)c3)ccn2)c1` [Example 155, 17-oxo-1-(3-(4-(piperidin-1-yl)-2-(4-(3-(trifluoromethyl)benzylcarbamoyl)pyridin-2-yl)phenylcarbamoyl)phenyl)-5,8,11,14,21,24,27-heptaoxa-2-thia-18-azatriacontan-30-oic acid] and `COCCOCCOCCOCCOCCOCCOCCN(C)C(=O)C1CCN(CCN(C)C(=O)c2cccc(C(=O)Nc3ccc(N4CCCCC4)cc3-c3cc(C(=O)N[C@H]4CCCc5ccccc54)ccn3)c2)CC1` [Example 334, (S)—N^1-(2-(4-(2,5,8,11,14,17,20-Heptaoxadocosan-22-yl(methyl)carbamoyl)piperidin-1-yl)ethyl)-N1-methyl-N3-(4-(piperidin-1-yl)-2-(4-(1,2,3,4-tetrahydronaphthalen-1-ylcarbamoyl)pyridin-2-yl)phenyl)isophthalamide] fall in the same range of IC50: 10 to 31.6 µM for the first, 10 to 31.6 µM for the second.

First: CN(CCN1CCOCC1)C(=O)c1cccc(C(=O)Nc2ccc(N3CCC[C@H]4CCCC[C@@H]43)cc2-c2cc(C(=O)NCc3cccc(C(F)(F)F)c3)ccn2)c1 [Example 114]
Second: CCCCN(C)c1ccc(NC(=O)c2cccc(C(=O)N(C)CCN3CCOCC3)c2)c(-c2cc(C(=O)NCc3cccc(C(F)(F)F)c3)ccn2)c1 [Example 127, N1-(4-(butyl(methyl)amino)-2-(4-(3-(trifluoromethyl)benzylcarbamoyl)pyridin-2-yl)phenyl)-N3-methyl-N3-(2-morpholinoethyl)isophthalamide]
The IC50 of the first is lower: 1 to 7.94 µM for the first, 10 to 31.6 µM for the second.

`CN(CCc1ccccn1)C(=O)c1cccc(C(=O)Nc2ccc(N3CCCCC3)cc2-c2cc(C(=O)NCc3cccc(C(F)(F)F)c3)ccn2)c1` [Example 110] and `O=C(O)c1cccc(Cn2ccnc2-c2cccc(C(=O)Nc3ccc(N4CCCCC4)cc3-c3cc(C(=O)NCc4cccc(C(F)(F)F)c4)ccn3)c2)c1` [Example 184, 3-((2-(3-(4-(piperidin-1-yl)-2-(4-(3-(trifluoromethyl)benzylcarbamoyl)pyridin-2-yl)phenylcarbamoyl)phenyl)-1H-imidazol-1-yl)methyl)benzoic acid] fall in the same range of IC50: 1 to 7.94 µM for the first, 1 to 7.94 µM for the second.

Compared with `O=C(O)CCSCc1cccc(C(=O)Nc2ccc(N3CCCCC3)cc2-c2cc(C(=O)NCc3ccc(C(F)(F)F)nc3)ccn2)c1` [Example 1.2, 3-((3-((4-(Piperidin-1-yl)-2-(4-(((6-(trifluoromethyl)pyridin-3-yl)methyl)carbamoyl)pyridin-2-yl)phenyl)carbamoyl)benzyl)thio)propanoic acid], `O=C(O)CCSCc1cccc(C(=O)Nc2ccc(N3CCCCC3)cc2-c2cc(C(=O)NCc3ccc(OC(F)(F)F)c(F)c3)ccn2)c1` [Example 1.26] is lower in IC50: 10 to 31.6 µM for the first, 1 to 7.94 µM for the second.

`COCCNC(=O)N1CCN(CCN(C)C(=O)c2cccc(C(=O)Nc3ccc(N4CCCCC4)cc3-c3cc(C(=O)NCc4cccc(C(F)(F)F)c4)ccn3)c2)CC1` [Example 207, N1-(2-(4-((2-methoxyethyl)carbamoyl)piperazin-1-yl)ethyl)-N3-(2-(4-((3-(trifluoromethyl)benzyl)carbamoyl)pyridin-2-yl)-4-(piperidin-1-yl)phenyl)-N1-methylisophthalamide] and `CN1CCC(NC(=O)c2cccc(SCc3cccc(C(=O)Nc4ccc(N5CCCCC5)cc4-c4cc(C(=O)NCc5cccc(C(F)(F)F)c5)ccn4)c3)c2)CC1` [Example 10.4] fall in the same range of IC50: 10 to 31.6 µM for the first, 10 to 31.6 µM for the second.

First: O=C(O)COc1cccc(SCc2cccc(C(=O)Nc3ccc(N4CCCCC4)cc3-c3cc(C(=O)NCc4cccc(C(F)(F)F)c4)ccn3)c2)c1 [Example 134, 2-(3-(3-(4-(piperidin-1-yl)-2-(4-(3-(trifluoromethyl)benzylcarbamoyl)pyridin-2-yl)phenylcarbamoyl)benzylthio)phenoxy)acetic acid]
Second: O=C(O)CCSCc1cccc(C(=O)Nc2ccc(N3CCCCC3)cc2-c2cc(NCCc3cccc(C(F)(F)F)c3)ncn2)c1 [Example 3.3, 3-((3-((4-(Piperidin-1-yl)-2-(6-((3-(trifluoromethyl)phenethyl)amino)pyrimidin-4-yl)phenyl)carbamoyl)benzyl)thio)propanoic acid]
The IC50 of the first is lower: 1 to 7.94 µM for the first, 10 to 31.6 µM for the second.

First: CCN(CC)c1ccc(NC(=O)c2cccc(CCCOCCOCCOCCOCCNS(=O)(=O)c3ccc(CCC(=O)O)cc3)c2)c(-c2cc(C(=O)N[C@H]3CCCc4ccccc43)ccn2)c1 [Example 320]
Second: CC(Nc1cc(-c2cc(N3CCCCC3)ccc2NC(=O)c2cccc(CSCCC(=O)O)c2)ncn1)c1cccc(C(F)(F)F)c1 (stereo not shown) [Example 76, 3-((3-((4-(Piperidin-1-yl)-2-(6-((1-(3-(trifluoromethyl)phenyl)ethyl)amino)pyrimidin-4-yl)phenyl)carbamoyl)benzyl)thio)propanoic acid]
The IC50 of the first is lower: less than 1 µM for the first, 10 to 31.6 µM for the second. The first is the more potent here.
